Results taken from US20250313560A1, “Novel bicyclic benzylamido pyridine derivatives as SOS1 inhibitors” (Boehringer Ingelheim International GmbH, priority 2024, published 2025).
Like-named read-outs stand apart in the source and are kept apart here.

Key:
CYP3A4 = CYP3A4 (Homo sapiens (Human), UniProt P08684); test: Mechanism-based inhibition of CYP3A4 assay (MBI 3A4); assay type: in vitro ADME; conditions: human liver microsomes, midazolam substrate, hydroxy-midazolam formation after 30 min preincubation relative to 0 min; for inhibition at 30 min: human, probe midazolam 15 μM (hydroxy-midazolam formation), read-out: MBI inhibition % ctrl. [%] with MDZ
Sequence of CYP3A4 (P08684 whole entry): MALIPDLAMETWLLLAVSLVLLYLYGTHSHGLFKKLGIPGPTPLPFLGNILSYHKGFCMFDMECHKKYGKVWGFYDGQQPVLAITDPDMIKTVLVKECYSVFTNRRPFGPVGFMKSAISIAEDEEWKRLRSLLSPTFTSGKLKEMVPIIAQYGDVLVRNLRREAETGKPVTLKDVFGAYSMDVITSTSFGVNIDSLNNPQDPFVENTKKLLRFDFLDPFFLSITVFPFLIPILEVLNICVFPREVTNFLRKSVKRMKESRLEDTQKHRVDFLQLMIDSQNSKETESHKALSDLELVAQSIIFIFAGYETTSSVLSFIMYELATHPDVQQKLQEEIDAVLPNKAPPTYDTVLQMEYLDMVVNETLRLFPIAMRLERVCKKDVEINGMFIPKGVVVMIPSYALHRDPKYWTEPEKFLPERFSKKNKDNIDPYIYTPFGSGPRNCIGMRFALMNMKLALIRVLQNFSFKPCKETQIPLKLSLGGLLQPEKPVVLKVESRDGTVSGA
Procedure: Mechanism-Based Inhibition of CYP3A4 assay (MBI 3A4): The mechanism-based inhibition towards CYP3A4 is assayed in human liver microsomes with midazolam as substrate. The test compounds and water control (wells w/o test compound) are preincubated in presence of NADPH (1 mM) with human liver microsomes (0.2 mg/mL) at a concentration of 0, 5 and 25 μM for 0, 10 and 30 min. After preincubation, the incubate is diluted 1:10 (to 0.02 mg/mL) and the substrate midazolam (15 μM) is added for the main incubation (10 min). The main incubation is quenched with ACN and the formation of hydroxy-midazolam is quantified via LC/MS-MS. The formation of hydroxy-midazolam from the 30 min preincubation relative to the formation from the 0 min preincubation is used as a readout. Values of less than 100% mean that the substrate midazolam is metabolized to a lower extent upon 30 min preincubation compared to 0 min preincubation. In general, low effects upon 30 min preincubation are desired (corresponding to values close to 100%/not different to the values determined with water control).
Table 5: Mechanism-based inhibition of P450 isoenzyme 3A4 with midazolam as substrate.

P450 3A4 = P450 3A4 (Homo sapiens (Human), UniProt P08684); test: Cytochrome P450 isoenzyme inhibition assay (P450 3A4, midazolam); assay type: in vitro ADME; conditions: human liver microsomes, Midazolam as substrate; read-out: CYP3A4 inhibition IC50
Sequence of P450 3A4 (P08684 whole entry): as above
Procedure: For the following cytochrome P450 isoenzymes, these substrates and metabolic reactions are monitored: P450 3A4: hydroxylation of Midazolam (MDZ).
The final incubation volume contains TRIS buffer (0.1 M), MgCl2 (5 mM), a certain concentration of human liver microsomes dependent on the P450 isoenzyme measured (P450 3A4: 0.1 mg/ml) and a certain concentration of the individual substrate for each isoenzyme (P450 3A4: Midazolam 5 μM).
The effect of the test compound is determined at five different concentrations in duplicate (e.g. highest concentration 50 μM with subsequent serial 1:4 dilutions) or without test compound (high control). Following a short preincubation period, reactions are started with the cofactor (NADPH, 1 mM) and stopped by cooling the incubation down to 8° C. and subsequently by addition of one volume of ACN. An internal standard solution—usually the stable isotope of the formed metabolite—is added after quenching of incubations. Peak area analyte (=metabolite formed) and internal standard is determined by LC-MS/MS. The resulting peak area ratio analyte to internal standard in these incubations is compared to a control activity containing no test compound. Within each of the assay runs, the IC50 of a positive control inhibitor dependent on the P450 isoenzyme measured (P450 3A4: ketoconazole) is determined. The assay results are plotted against compound concentrations to calculated IC50 values (half maximal inhibitory concentrations) for inhibitory compounds utilizing Software IDBS E-WorkBook.
Table 4: Inhibition of P450 isoenzyme 3A^4.

SOS1 and KRAS G12D = SOS1 and KRAS G12D (Homo sapiens (Human), UniProt Q07889); test: KRAS::SOS1 AlphaScreen binding assay (KRAS G12D); conditions: average of at least two measurements
Sequence of SOS1 and KRAS G12D (Q07889 564-1049, stated change not applied): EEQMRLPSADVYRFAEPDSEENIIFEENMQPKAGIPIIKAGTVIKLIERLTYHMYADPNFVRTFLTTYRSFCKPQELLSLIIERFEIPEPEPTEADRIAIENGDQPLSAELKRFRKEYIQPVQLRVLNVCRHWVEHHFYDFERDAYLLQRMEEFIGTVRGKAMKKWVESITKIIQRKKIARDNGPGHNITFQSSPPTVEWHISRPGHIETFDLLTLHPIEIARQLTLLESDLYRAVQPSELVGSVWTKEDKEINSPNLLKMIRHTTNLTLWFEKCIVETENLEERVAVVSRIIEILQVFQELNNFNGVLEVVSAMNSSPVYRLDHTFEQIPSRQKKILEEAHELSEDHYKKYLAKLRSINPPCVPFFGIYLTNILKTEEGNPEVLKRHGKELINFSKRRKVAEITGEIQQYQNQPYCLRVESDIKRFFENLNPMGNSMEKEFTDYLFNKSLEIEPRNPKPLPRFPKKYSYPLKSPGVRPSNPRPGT
Procedure: (§1) Low IC50 values are indicative of high potency of the SOS1 inhibitor compound in this assay setting:
(§2) • GST-tagged SOS1 (564_1049_GST_TEV_ECO) produced in-house • 6xHis-Tev-K-RasG12D/G12C(1-169)Avi produced in-house • GDP (Sigma Cat No G7127) • AlphaLISA Glutathione Acceptor Beads (PerkinElmer, Cat No AL109) • AlphaScreen Streptavidin Donor Beads (PerkinElmer Cat No 6760002) • Assay plates: Proxiplate-384 PLUS, white (PerkinElmer, Cat No 6008289)
(§3) [formula] • KRAS::SOS1 GDP mix: • 7.5 nM (final assay concentration) K-RasG12C, 10 nM (final assay concentration) K-RasG12D, 10 μM (final assay concentration) GDP and 5 nM (final assay concentration) GST-SOS1 are mixed in assay buffer prior to use and kept at rt. Bead mix: • AlphaLISA Glutathione Acceptor Beads and AlphaScreen Streptavidin Donor Beads are mixed in the dark in assay buffer at a concentration of 10 μg/mL (final assay concentration) each prior to use and kept at rt.
(§4) Compounds are diluted to a final start concentration of 100 μM and are tested in duplicate. Assay-ready plates (ARPs) are generated using an Access Labcyte Workstation with a Labcyte Echo 550 or 555 acoustic dispenser. For compound a start concentration of 100 μM, 150 nL of compound solution is transferred per well in 11 concentrations in duplicate with serial 1:5 dilutions.
(§5) The assay is run using a fully automated robotic system in a darkened room below 100 Lux. 10 μL of KRAS::SOS1 GDP mix is added into columns 1-24 to the 150 nL of compound solution (final dilution in the assay 1:100, final DMSO concentration 1%).
(§6) After a 30 minute incubation time, 5 μL of bead mix is added into columns 1-23. Plates are kept at rt in a darkened incubator. After a further 60 minutes incubation, the signal is measured using a PerkinElmer Envision HTS Multilabel Reader using the AlphaScreen specifications from PerkinElmer. Each plate contains the following controls:
(§7) diluted DMSO+KRAS::SOS1 GDP mix+bead mix
(§8) diluted DMSO+KRAS::SOS1 GDP mix
(§9) Result calculation: IC50 values are calculated and analyzed using a 4 parametric logistic model.
(§10) Table 1: Inhibition values for KRAS G12C as well as for KRAS G12D. […] The value indicates an average value of at least two measurements.

[1] = tested on: ERK phosphorylation in NCI-H358 SOS2 KO cells (KRAS G12C); test: Erk phosphorylation assay; assay type: cell-based, human; conditions: EGF stimulated, average of at least two measurements, read-out: pERK IC50
Procedure: Low IC50 values are indicative of high potency of the SOS1 inhibitor compounds in this assay setting.
ERK phosphorylation assays are performed using the following human cell line: • NCI-H358 SOS2 KO (Hofmann, Gmachl, Ramharter et al, Cancer Discov. 2021, 11(1):142-15): human lung cancer with a KRAS G12C mutation;
NCI-H358 SOS2 KO are seeded at 50000 cells per well in 60 μL of DMEM with 2% FBS, in Greiner TC 384 plates. The cells are incubated overnight in an incubator at 37° C. and 5% CO2 in a humidified atmosphere. 60 nL compound solution (10 mM DMSO stock solution) is then added using a Beckman Coulter Labcyte Echo 550 device. After 50 min incubation in the aforementioned incubator, 5 nl EGF are added to each well for a final concentration of approx. 8 ng/mL using a Beckman Coulter Labcyte Echo 550 device and cells are incubated for another 10-15 minutes before lysis. The medium is removed, and the cells are lysed by addition of 20 μL of 1.6-fold lysis buffer from the AlphaLISA SureFire Ultra pERK1/2 (Thr202/Tyr204) Assay Kit with added protease inhibitors. After 20 minutes of incubation at rt with shaking, 6 μL of each lysate sample is transferred to a 384-well Proxiplate and analyzed for pERK (Thr202/Tyr204) with the AlphaLISA SureFire Ultra pERK1/2 (Thr202/Tyr204) Assay Kit. 3 μL Acceptor Mix and 3 μL Donor Mix are added under subdued light and incubated for 2 h at rt in the dark, before the signal is measured on a Perkin Elmer Envision plate reader using 384 AlphaScreen settings for Proxiplates. Data are fitted by iterative calculation with variable hill slope. The sigmoidal curve slope is fitted using a default fitting curve to ascertain IC50 values.
Table 2: Erk Phosphorylation assay. The value indicates an average value of at least two measurements.

human hepatocytes = test: Metabolic stability in human hepatocytes; conditions: 1 μM test compound, 50% human serum, percentage of liver blood flow
SOS1 and KRAS G12C = SOS1 and KRAS G12C (Homo sapiens (Human), UniProt Q07889); test: KRAS::SOS1 AlphaScreen binding assay (KRAS G12C); conditions: average of at least two measurements
Sequence of SOS1 and KRAS G12C (Q07889 564-1049, stated change not applied): as above
Procedure: as §1, §2, §3, §4, §5, §6, §7, §8, §9, §10

[2] = Homo sapiens, NCI-H358, NCI-H358 SOS2 KO cells

Row | MBI inhibition % ctrl. [%] with MDZ (CYP3A4) [%] | IC50 (P450 3A4) [nM] | IC50 (SOS1 and KRAS G12D) [nM] | IC50 ([1]; NCI-H358 SOS2 KO cells) [nM] | Hepatic clearance - QH[%] in human hepatocytes (human hepatocytes) [%] | IC50 (SOS1 and KRAS G12C) [nM] | inhibition at 30 min (CYP3A4) [%] | IC50 [1, 2] [nM] | SMILES
1 |  | > 50000 | 30 |  | 17 | 33 | 98 | 118 | C[C@@H](NC(=O)c1cc(N2CCC(N3CCC[C@@H]3CO)CC2)c2ncnn2c1)c1cccc(C(F)F)c1F [Example E1]
2 |  | > 50000 | 46 |  | 15 | 55 | 95 | 92 | C[C@@H](NC(=O)c1cc(N2CCC(N3CC[C@@H](O)C3)CC2)c2ncnn2c1)c1cccc(C(F)F)c1F [Example E2]
3 |  | > 50000 | 50 |  | 24 | 59 | 94 | 155 | C[C@@H](NC(=O)c1cc(N2CCC(N3C[C@H](O)C4(CC4)C3)CC2)c2ncnn2c1)c1cccc(C(F)F)c1F [Example E3]
4 |  | > 50000 | 70 |  | 20 | 82 | 99 | 336 | C[C@@H](NC(=O)c1cc(N2CCC(N3CC[C@](C)(O)C3)CC2)c2ncnn2c1)c1cccc(C(F)F)c1F [Example E4]
5 |  | > 50000 | 57 |  | 16 | 65 | 103 | 324 | C[C@@H](NC(=O)c1cc(N2CCC(N3CC[C@@](C)(O)C3)CC2)c2ncnn2c1)c1cccc(C(F)F)c1F [Example E5]
6 |  | > 50000 | 37 |  | 16 | 36 | 102 | 247 | C[C@@H](NC(=O)c1cc(N2CCC(N3CCC[C@H]3CO)CC2)c2ncnn2c1)c1cccc(C(F)F)c1F [Example E6]
7 |  | > 50000 | 43 |  | 31 | 50 | 106 | 246 | C[C@@H](NC(=O)c1cc(N2CCC(N(C)CC(C)(C)O)CC2)c2ncnn2c1)c1cccc(C(F)F)c1F [Example E7]

More lines, now with the values behind:

Row | SMILES | MBI inhibition % ctrl. [%] with MDZ (CYP3A4) [%] | IC50 (P450 3A4) [nM] | IC50 (SOS1 and KRAS G12D) [nM] | IC50 ([1]; NCI-H358 SOS2 KO cells) [nM] | Hepatic clearance - QH[%] in human hepatocytes (human hepatocytes) [%] | IC50 (SOS1 and KRAS G12C) [nM] | inhibition at 30 min (CYP3A4) [%] | IC50 [1, 2] [nM]
8 | C[C@@H](NC(=O)c1cc(N2CCC(NC3COCC3O)CC2)c2ncnn2c1)c1cccc(C(F)(F)F)c1F (single isomer, unassigned) [Example trans-E42b] | 94 | > 50000 | 36 | 153 | 16 | 37 |  | 
9 | C[C@@H](NC(=O)c1cc(N2CCC(NC3CCCC3(C)O)CC2)c2ncnn2c1)c1cccc(C(F)(F)F)c1F (single isomer, unassigned) [Example trans-E53b] |  | > 50000 | 35 | 287 | 28 | 33 | 91 | 
10 | C[C@@H](NC(=O)c1cc([C@H]2CC[C@H](N3CCC(F)C(O)C3)CC2)c2ncnn2c1)c1cccc(C(F)F)c1F (single isomer, unassigned) [Example trans-E61b] | 101 | > 50000 | 32 | 138 | 30 | 32 |  | 
11 | C[C@@H](NC(=O)c1cc([C@H]2CC[C@H](N3CCC(F)C(O)C3)CC2)c2ncnn2c1)c1cccc(C(F)(F)F)c1F (single isomer, unassigned) [Example trans-E70b] |  | > 50000 | 42 | 169 | 19 | 36 | 107 | 
12 | C[C@@H](NC(=O)c1cc([C@H]2CC[C@H](N3CCC(F)C(O)C3)CC2)c2ncnn2c1)c1cccc(C(F)F)c1F (single isomer, unassigned) [trans-E61a] |  | > 50000 | 41 | 391 | 40 | 39 | 93 | 
